The test system of one series is K562. In words: Cell cycle arrest in human K562 cells assessed as accumulation at G0/G1 phase up to 0.3 uM after 24 hrs by propidium iodide/RNase staining based flow cytometric analysis. Format: functional.
A short description of series [1]: Tmax in Sprague-Dawley rat at 1 mg/kg, iv by LC-MS/MS analysis. The class given is ADME, organism-based. Conditions: in vivo.
The subject of series [2] is Bcr/Abl fusion protein (Homo sapiens), P00519+P11274 [M351T]. The note with it: BaF3.
A further series has as its system KU812 cell line. In words: Induction of apoptosis in human KU812 cells assessed as cleaved caspase-3 level up to 0.3 uM after 24 hrs by immunoblotting analysis. The class given is functional, cell-based. On the technique in general: In western blotting, separated proteins are transferred to a membrane and probed.

Molecules are shown by their SMILES. Active and inactive are the calls of the source. The calls are words filed in the database; no cut-off is given here.

These results are taken from ChEMBL document CHEMBL4382204 (Eur J Med Chem, 2018).

With `CN1CCN(Cc2ccc(NC(=O)CCSc3ccc4c(/C=C/c5ccccn5)n[nH]c4c3)cc2C(F)(F)F)CC1`, the outcome with K562 and with KU812 cell line was Active. Further, the Tmax in series [1] amounted to 1.2 min. In series [2], this compound gave a GI50 of 17 nM.

In general, Tmax refers to the time at which the peak concentration occurs. A word on the GI50: it is the concentration at which growth is held to half of that of the control. Higher therefore signals less potent growth inhibition.
